Results on 1 compound are retold here after patent US20260207624A1, “COADMINISTRATION OF ESTROGEN WITH ESTROGEN RECEPTOR MODULATOR OR DEGRADER OR ER TARGETED PROTAC FOR THE TREATMENT OF ESTROGEN RESPONSIVE CANCERS” (Duke University, priority 2022, published 2026).

For one assay, the target named is T1, ER (Homo sapiens, UniProt P03372).
T1 construct: SERDs differ in the efficacy of ER downregulation in breast cancer cell lines; endogenous in cells; host or cells: MCF7, BT483, T47D, ZR751, CAMA1
T1 sequence (P03372 1-595): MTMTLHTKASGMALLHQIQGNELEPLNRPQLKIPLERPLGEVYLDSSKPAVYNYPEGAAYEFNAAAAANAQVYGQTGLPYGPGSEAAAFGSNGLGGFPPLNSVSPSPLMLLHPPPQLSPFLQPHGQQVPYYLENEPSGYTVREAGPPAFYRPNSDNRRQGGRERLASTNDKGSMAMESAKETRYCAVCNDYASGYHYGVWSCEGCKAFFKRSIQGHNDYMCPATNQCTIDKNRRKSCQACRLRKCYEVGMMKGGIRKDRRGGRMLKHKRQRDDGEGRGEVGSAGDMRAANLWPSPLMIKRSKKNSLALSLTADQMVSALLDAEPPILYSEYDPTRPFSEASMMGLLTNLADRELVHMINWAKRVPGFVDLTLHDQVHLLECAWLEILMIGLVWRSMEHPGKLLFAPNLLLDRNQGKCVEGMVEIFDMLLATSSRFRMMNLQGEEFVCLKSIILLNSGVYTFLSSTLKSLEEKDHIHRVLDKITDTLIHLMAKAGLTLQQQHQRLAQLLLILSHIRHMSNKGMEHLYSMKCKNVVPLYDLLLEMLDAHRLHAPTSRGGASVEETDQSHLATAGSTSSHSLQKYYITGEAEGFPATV
Description: ER downregulation in breast cancer cell lines by in-cell western. The note with it: MCF7, BT483, T47D, ZR751, CAMA1 cells, 24 hours after treatment. The class given is cell-based. The method, then:
FIGS. 8A-8B. SERDs differ in the efficacy of ER downregulation in breast cancer cell lines. Breast cancer cells, including MCF7, BT483, T47D, ZR751, and CAMA1, were plated in phenol red free media supplemented with charcoal stripped FBS prior to treatment in triplicate wells with the indicated SERMs or SERDs (10-11-10-5 M final concentration). 24 hours after treatment, cells were fixed to the plates, and ER levels were analyzed by in-cell western using a fluorophore conjugated secondary antibody. Average detected ER levels were normalized to well DNA content using DRAQ5 staining. Relative ER turnover was calculated as a ratio of normalized ER levels detected in treated wells to untreated wells. Data were representative of at least 3 independent experiments. Data for each cell line were graphed in 2 panels to categorize SERDs by chemical properties, separating basic SERDs (FIG. 8A) and those having carboxylic acid group(s) (FIG. 8B). Serm-like SERDs bazedoxifene and elacestrant were also presented in (FIG. 8A) for reference. Fulvestrant was included on both graphs for all cell lines to facilitate comparison.

The subject of a further assay is Breast cancer cells. Description: Anti-proliferative activity in breast cancer cell lines (DNA content, Hoechst staining). The note with it: with estradiol 0.1 nM, 7 days after treatment. The class given is cell-based. The protocol: FIGS. 9A-9C. Anti-proliferative activities of SERDs in select breast cancer cell lines differ primarily in potency. Breast cancer cells were plated in phenol red free media supplemented with charcoal stripped FBS prior to treatment in triplicate wells with the indicated SERMs and SERM-like SERDs (FIG. 9A), acidic SERDs (FIG. 9B), basic SERDs (FIG. 9C) at 10^-12 to 10^-5 M final concentration, followed by addition of estradiol (E2, 0.1 nM) or insulin (2 nM, MCF7 cell line only, bottom panels). 7 days after treatment, plates were harvested and DNA quantitated using fluorescence following Hoechst staining. Average detected fluorescence was normalized to wells receiving no ligand treatment, and relative change in DNA fluorescence was calculated compared to wells treated only with E2. Data are representative of at least 3 independent experiments.

Take `CCNCCc1ccc(CN(CC)c2cc(OC)ccc2[C@@H]2CCc3cc(O)ccc3C2)cc1` [elacestrant]: the “ER downregulation / ER degradation” value on ER was “generally the least efficient SERD”. Further, the “inhibition of cellular proliferation” value with Breast cancer cells was “efficacy similar to that observed for other SERDs”.
